In US20220400680A1, “USE OF ACYLCYANAMIDES OR SALTS THEREOF FOR REGULATING PLANT GROWTH” (Alzchem Trostberg GmbH, priority 2019, published 2022):

Tests used:
[1] = tested on: Grape, type Pinot Noir (C4); assay: Greenhouse test, cut wine sprouts C4 dipped in test solution, bud development stage; format: in vivo, Vitis vinifera subsp. vinifera; design: key to Bud development stage, wine sprouts C4: Stage 0: Buds unchanged; Stage 1: Buds slightly swollen, first green tips visible; Stage 2: strongly swollen, green buds; Stage 3: Buds before breaking open, leaf or flower root already visible; Stage 4: Flower buds fully developed, but still closed, white petals already visible. In the case of the grapevine, stage 4 was the unfolding of the first leaves; Stage 5: Flowers fully open or, in the case of grapevine, unfolding of the flower roots (“Gescheine”) on the fully leafed sprouts; conditions: for Dormancy-breaking effect according to the definition, wine C4: stage 4 reached or exceeded after 36 days vs negative control
Procedure: Greenhouse tests were conducted using cut fruit tree branches placed in water jars and maintained under controlled conditions with temperature regulation at approximately 22° C. and natural lighting. C4: Grape, Type Pinot Noir Grape: Vitis vinifera subsp. vinifera type Pinot Noir is an important and high quality red wine type that has existed for possibly 2000 years. It is cultivated all over the world because the type produces high quality red wines and has sufficient winter frost resistance. The type requires early and good areas with deep, warm, medium-heavy and fertile soils with good water supply. Pinot Noir produces regular, medium-high to high yields. However, there are a large number of clones that differ in yield, berry size and looseness. […] The test solutions were prepared directly, i.e. without intermediate preparation of a concentrate. For each of the test substances A-1 to A-13, an aqueous solution of 0.15 mol of the test substance and 0.15 g BreakThru® OE-446 was prepared and filled up to a total of 500 g with water. Of bis-cyanamides A-14 and A-15, 0.075 mol each was filled up to 500 g in an analogous manner. These test solutions (in combination with the above 4 species/types Cx) were given the test numbers Cx-A1 to Cx-A15. […] This was done with the following evaluation scale: • Stage 0: […] Flower buds fully developed, but still closed, white petals already visible. […] Flowers fully open or, in the case of grapevine, unfolding of the flower roots (“[…]”) on the fully leafed sprouts.

[2] = tested on: Table cherry, type Burlat (C3); assay: Greenhouse test, cut cherry branches C3 dipped in test solution, bud development stage; format: in vivo, Prunus avium; design: key to Bud development stage, cherry branches C3: Stage 0: Buds unchanged; Stage 1: Buds slightly swollen, first green tips visible; Stage 2: strongly swollen, green buds; Stage 3: Buds before breaking open, leaf or flower root already visible; Stage 4: Flower buds fully developed, but still closed, white petals already visible. In the case of the grapevine, stage 4 was the unfolding of the first leaves; Stage 5: Flowers fully open or, in the case of grapevine, unfolding of the flower roots (“Gescheine”) on the fully leafed sprouts
Procedure: Greenhouse tests were conducted using cut fruit tree branches placed in water jars and maintained under controlled conditions with temperature regulation at approximately 22° C. and natural lighting. C3: Table Cherry, Type Burlat Table cherry: Prunus avium type Bigarreau Burlat or […] is a strong-growing somewhat sparse growing sweet cherry tree with horizontal side sprouts. The type has been known since 1930 and is one of the most important types in commercial cultivation. […] Medium but regular yields identify the type as a secondary type for early and dry areas. […] The test solutions were prepared directly, i.e. without intermediate preparation of a concentrate. For each of the test substances A-1 to A-13, an aqueous solution of 0.15 mol of the test substance and 0.15 g BreakThru® OE-446 was prepared and filled up to a total of 500 g with water. Of bis-cyanamides A-14 and A-15, 0.075 mol each was filled up to 500 g in an analogous manner. These test solutions (in combination with the above 4 species/types Cx) were given the test numbers Cx-A1 to Cx-A15. […] This was done with the following evaluation scale: • Stage 0: […] Flower buds fully developed, but still closed, white petals already visible. […] Flowers fully open or, in the case of grapevine, unfolding of the flower roots (“[…]”) on the fully leafed sprouts.

[3] = tested on: Table apple, type Zabergäu-Renette (C2); assay: Greenhouse test, cut apple branches C2 dipped in test solution, bud development stage; format: in vivo, Malus domestica; design: key to Bud development stage, apple branches C2: Stage 0: Buds unchanged; Stage 1: Buds slightly swollen, first green tips visible; Stage 2: strongly swollen, green buds; Stage 3: Buds before breaking open, leaf or flower root already visible; Stage 4: Flower buds fully developed, but still closed, white petals already visible. In the case of the grapevine, stage 4 was the unfolding of the first leaves; Stage 5: Flowers fully open or, in the case of grapevine, unfolding of the flower roots (“Gescheine”) on the fully leafed sprouts; conditions: for Dormancy-breaking effect according to the definition, apple C2: stage 4 reached or exceeded after 36 days vs negative control
Procedure: Greenhouse tests were conducted using cut fruit tree branches placed in water jars and maintained under controlled conditions with temperature regulation at approximately 22° C. and natural lighting. C2: Table Apple, Type […] Table apple: Malus domestica type […] first developed in 1885 as a chance seedling in Hausen a.d. Zaber/Baden-Württemberg and initially grown as 'Hausener Graue […]'. No defined storage type; requires heavy soils (loam). Tree growth initially strong with oblique upright leading branches, later medium with flat branches. Crown broad and flat-spherical with flat fruiting wood. Leaves large, broad oval and with clearly separated tip. Triploid type with late and long-lasting flowering. Yield starting early, medium high and somewhat alternate. […] The test solutions were prepared directly, i.e. without intermediate preparation of a concentrate. For each of the test substances A-1 to A-13, an aqueous solution of 0.15 mol of the test substance and 0.15 g BreakThru® OE-446 was prepared and filled up to a total of 500 g with water. Of bis-cyanamides A-14 and A-15, 0.075 mol each was filled up to 500 g in an analogous manner. These test solutions (in combination with the above 4 species/types Cx) were given the test numbers Cx-A1 to Cx-A15. […] This was done with the following evaluation scale: • Stage 0: […] Flower buds fully developed, but still closed, white petals already visible. […] Flowers fully open or, in the case of grapevine, unfolding of the flower roots (“[…]”) on the fully leafed sprouts.

[4] = tested on: Table apple, type Boiken apple (C1); assay: Greenhouse test, cut apple branches C1 dipped in test solution, bud development stage; format: in vivo, Malus domestica; design: key to Bud development stage, apple branches C1: Stage 0: Buds unchanged; Stage 1: Buds slightly swollen, first green tips visible; Stage 2: strongly swollen, green buds; Stage 3: Buds before breaking open, leaf or flower root already visible; Stage 4: Flower buds fully developed, but still closed, white petals already visible. In the case of the grapevine, stage 4 was the unfolding of the first leaves; Stage 5: Flowers fully open or, in the case of grapevine, unfolding of the flower roots (“Gescheine”) on the fully leafed sprouts; conditions: for Good to very good dormancy-breaking effect, apple C1: stage 4 reached or exceeded after 27 days vs negative control; for Dormancy-breaking effect according to the definition, apple C1: stage 4 reached or exceeded after 36 days vs negative control
Procedure: Greenhouse tests were conducted using cut fruit tree branches placed in water jars and maintained under controlled conditions with temperature regulation at approximately 22° C. and natural lighting. C1: Table Apple, Type Boiken Apple Table apple: Malus domestica type Boiken first described in 1828 in Bremen after Deichvogt Boiken. Apple type for rough locations and for almost every soil suitable scattered fruit type, whereby heavy soils and not too warm locations are required. Tree growth initially strong, later medium. Older crowns become broadly spherical and are loosely branched. Flowering starting medium-late and long lasting, petals large with little pink. Yield starting late (October) and irregular; with long shelf life and pressure resistance. […] The test solutions were prepared directly, i.e. without intermediate preparation of a concentrate. For each of the test substances A-1 to A-13, an aqueous solution of 0.15 mol of the test substance and 0.15 g BreakThru® OE-446 was prepared and filled up to a total of 500 g with water. Of bis-cyanamides A-14 and A-15, 0.075 mol each was filled up to 500 g in an analogous manner. These test solutions (in combination with the above 4 species/types Cx) were given the test numbers Cx-A1 to Cx-A15. […] This was done with the following evaluation scale: • Stage 0: […] Flower buds fully developed, but still closed, white petals already visible. […] Flowers fully open or, in the case of grapevine, unfolding of the flower roots (“[…]”) on the fully leafed sprouts.

[5] = T1 (14 d), 0.15 mol (A-14, A-15: 0.075 mol) per 500 g solution
[6] = stage 4 reached or exceeded after 27 days vs negative control

Row | SMILES | Bud development stage, wine sprouts C4 [1, 5] | Bud development stage, wine sprouts C4 ([1]; T2 (16 d)) | Bud development stage, wine sprouts C4 ([1]; T3 (21 d)) | Bud development stage, wine sprouts C4 ([1]; T4 (27 d)) | Bud development stage, wine sprouts C4 ([1]; T5 (36 d)) | Bud development stage, wine sprouts C4 ([1]; T6 (56 d)) | Bud development stage, cherry branches C3 [2, 5] | Bud development stage, cherry branches C3 ([2]; T2 (16 d)) | Bud development stage, cherry branches C3 ([2]; T3 (21 d)) | Bud development stage, cherry branches C3 ([2]; T4 (27 d)) | Bud development stage, cherry branches C3 ([2]; T5 (36 d)) | Bud development stage, cherry branches C3 ([2]; T6 (56 d)) | Bud development stage, apple branches C2 [3, 5] | Bud development stage, apple branches C2 ([3]; T2 (16 d)) | Bud development stage, apple branches C2 ([3]; T3 (21 d)) | Bud development stage, apple branches C2 ([3]; T4 (27 d)) | Bud development stage, apple branches C2 ([3]; T5 (36 d)) | Bud development stage, apple branches C2 ([3]; T6 (56 d)) | Bud development stage, apple branches C1 [4, 5] | Bud development stage, apple branches C1 ([4]; T2 (16 d)) | also measured
1 | CCCC(=O)NC#N.[Na] [Example A-6, Sodium butyryl cyanamide] | 0 | 0 | 0 | 1 | 2 | 5 | 1 | 1 | 3 | 5 | 5 | 5 | 0 | 0 | 1 | 2 | 5 | 5 | 2 | 3 | Dormancy-breaking effect according to the definition, cherry C3 [2, 6]: dormancy-breaking effect; Dormancy-breaking effect according to the definition, apple C2 [3]: dormancy-breaking effect; Bud development stage, apple branches C1 ([4]; T3 (21 d)): 4; Bud development stage, apple branches C1 ([4]; T4 (27 d)): 5; Bud development stage, apple branches C1 ([4]; T5 (36 d)): 5; Bud development stage, apple branches C1 ([4]; T6 (56 d)): 5; Good to very good dormancy-breaking effect, apple C1 [4]: good to very good dormancy-breaking effect; Dormancy-breaking effect according to the definition, apple C1 [4]: dormancy-breaking effect
2 | CC(C)(C)C(=O)NC#N.[Na] [Example A-8, Sodium pivaloyl cyanamide] | 0 | 0 | 0 | 1 | 4 | 5 | 0 | 0 | 1 | 2 | 4 | 5 | 0 | 0 | 0 | 1 | 2 | 4 | 0 | 0 | Dormancy-breaking effect according to the definition, wine C4 [1]: dormancy-breaking effect; Bud development stage, apple branches C1 ([4]; T3 (21 d)): 2; Bud development stage, apple branches C1 ([4]; T4 (27 d)): 4; Bud development stage, apple branches C1 ([4]; T5 (36 d)): 4; Bud development stage, apple branches C1 ([4]; T6 (56 d)): 4; Good to very good dormancy-breaking effect, apple C1 [4]: good to very good dormancy-breaking effect; Dormancy-breaking effect according to the definition, apple C1 [4]: dormancy-breaking effect
3 | CCCCCC(=O)NC#N.[Na] [Example A-9, Sodium hexanoyl cyanamide] | 0 | 0 | 0 | 2 | 5 | 5 | 0 | 1 | 2 | 3 | 5 | 5 | 0 | 1 | 4 | 5 | 5 | 5 | 0 | 1 | Dormancy-breaking effect according to the definition, wine C4 [1]: dormancy-breaking effect; Good to very good dormancy-breaking effect, apple C2 [3, 6]: good to very good dormancy-breaking effect; Dormancy-breaking effect according to the definition, apple C2 [3]: dormancy-breaking effect; Bud development stage, apple branches C1 ([4]; T3 (21 d)): 1; Bud development stage, apple branches C1 ([4]; T4 (27 d)): 2; Bud development stage, apple branches C1 ([4]; T5 (36 d)): 2; Bud development stage, apple branches C1 ([4]; T6 (56 d)): 3
